Data from publication doi:10.1101/735001v1 (bioRxiv, 2019).
Where a SMILES comes first, the peptide text is derived from it. [ ]: non-standard residue; d: D form. Dmt = Cc1cc(O)cc(C)c1C[C@H](N)C(=O)O

Columns and labels:
[1] = Acrylamide dynamic quenching; format: physicochemical
[2] = system: LUVs containing 20% POPG; experiment: Acrylamide dynamic quenching; format: binding; conditions: 20 μM SS-31 with LUVs 20% POPG, n=3
[3] = system: LUVs containing 20% TOCL; experiment: Acrylamide dynamic quenching; format: binding; conditions: 20 μM SS-31 with LUVs 20% TOCL, n=3
[4] = system: LUVs containing 20 mol% POPG in POPC; experiment: Endogenous 2',6'-Dmt fluorescence measurement of SS-31 membrane binding; conditions: for increase in SS-31 emission intensity relative to emission in the absence of LUVs: 20% POPG, mean (SD), n=6, SD
[5] = system: LUVs containing 20 mol% TOCL in POPC; experiment: as above; conditions: for increase in SS-31 emission intensity relative to emission in the absence of LUVs: 20% TOCL, mean (SD), n=6, SD; for n value ([L]eff:[P] at saturation) from time course titration inflection point: 20 mol% TOCL
[6] = system: LUVs containing 20% MLCL; experiment: Acrylamide dynamic quenching; format: binding; conditions: 20 μM SS-31 with LUVs 20% MLCL, n=3
[7] = system: LUVs with POPC only; experiment: Endogenous 2',6'-Dmt fluorescence measurement of SS-31 membrane binding; conditions: 100% POPC, high salt (100 mM KCl), 20 μM SS-31, [L]eff 100 µM, mean (SD), n=6
[8] = system: LUVs containing 10 mol% TOCL; experiment: SS-31 titration time course binding saturation analysis; conditions: low salt
[9] = system: LUVs containing 20 mol% MLCL in POPC; experiment: Endogenous 2',6'-Dmt fluorescence measurement of SS-31 membrane binding; conditions: 20% MLCL, mean (SD), n=6
[10] = aqueous buffer, comparison of SS-31 with L-Tyr (Fig. S3C), n=3

Compound | Stern-Volmer constant KSV (acrylamide quenching) [1, 10] [M⁻¹] | Stern-Volmer constant KSV (acrylamide quenching) ([2]; high salt) [M⁻¹] | Stern-Volmer constant KSV (acrylamide quenching) ([2]; low salt) [M⁻¹] | Stern-Volmer constant KSV (acrylamide quenching) ([3]; high salt) [M⁻¹] | Stern-Volmer constant KSV (acrylamide quenching) ([3]; low salt) [M⁻¹] | increase in SS-31 emission intensity relative to emission in the absence of LUVs ([4]; high salt (100 mM KCl)) | increase in SS-31 emission intensity relative to emission in the absence of LUVs ([4]; low salt) | n value ([L]eff:[P] at saturation) from time course titration inflection point ([4]; 20 mol% POPG, low salt) | increase in SS-31 emission intensity relative to emission in the absence of LUVs ([5]; high salt (100 mM KCl)) | increase in SS-31 emission intensity relative to emission in the absence of LUVs ([5]; low salt, 20 μM SS-31, [L]eff 100 µM) | n value ([L]eff:[P] at saturation) from time course titration inflection point ([5]; high salt) | n value ([L]eff:[P] at saturation) from time course titration inflection point ([5]; low salt, SS-31 added in 2 µM increments, acrylamide in medium) | Stern-Volmer constant KSV (acrylamide quenching) ([1]; 20 μM SS-31 in the absence of membranes, high salt (100 mM KCl)) [M⁻¹] | Stern-Volmer constant KSV (acrylamide quenching) ([1]; 20 μM SS-31 in the absence of membranes, low salt) [M⁻¹] | Stern-Volmer constant KSV (acrylamide quenching) ([6]; high salt) [M⁻¹] | Stern-Volmer constant KSV (acrylamide quenching) ([6]; low salt) [M⁻¹] | increase in SS-31 emission intensity relative to emission in the absence of LUVs [7] | n value ([L]eff:[P] at saturation) from time course titration inflection point [8] | increase in SS-31 emission intensity relative to emission in the absence of LUVs ([9]; high salt (100 mM KCl)) | increase in SS-31 emission intensity relative to emission in the absence of LUVs ([9]; low salt)
N[C@@H](Cc1ccc(O)cc1)C(=O)O [L-Tyr, reference compound] | 17.1 | – | – | – | – | – | – | – | – | – | – | – | – | – | – | – | – | – | – | –
Cc1cc(O)cc(C)c1C[C@H](NC(=O)[C@H](N)CCCNC(=N)N)C(=O)N[C@@H](CCCCN)C(=O)N[C@@H](Cc1ccccc1)C(N)=O [SS-31, D-Arg-2’6’-dimethylTyr-Lys-Phe-NH2] (H-[dR][Dmt]KF-NH2) | 4.8 | 2.19 | 0.21 | 1.20 | 0.15 | 1.45 (0.04) | 2.16 (0.04) | ~11 | 1.72 (0.08) | 2.33 (0.07) | ~ 9 | ~ 5 | 5.4 | 5.7 | 1.04 | 0.02 | 1.08 (0.04) | ~ 12 | 1.79 (0.05) | 2.48 (0.05)
